{"source": "patent US20240315990A1", "about": "“Adelmidrol For Use In Diseases Characterized By Insufficient Agonism Of PPAR-GAMMA Receptor” (Epitech Group S.P.A., priority 2016, published 2024)", "molecular_target": "T1, PPAR-gamma receptor (Rattus norvegicus, UniProt O88275)", "T1 construct": "from tissue; host or cells: live rat (in vivo, paw edema model)", "T1 sequence (O88275 1-505)": "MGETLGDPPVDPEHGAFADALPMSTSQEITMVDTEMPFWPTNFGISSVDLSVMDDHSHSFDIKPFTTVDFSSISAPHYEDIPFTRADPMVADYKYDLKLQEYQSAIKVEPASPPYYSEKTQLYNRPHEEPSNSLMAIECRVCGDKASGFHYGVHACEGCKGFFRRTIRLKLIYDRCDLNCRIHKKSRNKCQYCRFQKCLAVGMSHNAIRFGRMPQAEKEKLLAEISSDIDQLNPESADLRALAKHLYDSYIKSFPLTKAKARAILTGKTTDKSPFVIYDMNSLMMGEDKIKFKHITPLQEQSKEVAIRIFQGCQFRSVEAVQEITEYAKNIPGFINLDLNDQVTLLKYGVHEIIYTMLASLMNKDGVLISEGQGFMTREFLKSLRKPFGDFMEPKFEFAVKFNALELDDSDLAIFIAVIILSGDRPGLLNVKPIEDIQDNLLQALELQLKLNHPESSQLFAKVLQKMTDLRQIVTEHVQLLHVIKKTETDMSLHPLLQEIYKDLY", "experiment": "carrageenan-induced rat paw edema with PPAR-gamma antagonist GW9662, residence time of the paw on the hot plate", "format": "in vivo", "details": "GW9662 1 mg/kg i.p. 30 min before CAR, Adelmidrol 10 mg/kg i.p.", "procedure": "The experimental model of carrageenan-induced rat paw edema is as shown above. In this experiment, the effect was assessed by measuring the residence time of the animal's paw on the hot plate, thus obtaining percentage data with respect to the control treated with carrageenan alone.\nThe rats (10 animals per group) were divided into the following experimental groups: • CAR+physiological solution; • CAR+GW9662 (1 mg/kg)+Adelmidrol (10 mg/kg); GW9662 was administered i.p. 30 min before injecting CAR and Adelmidrol (i.p.) when injecting CAR; • CAR+Adelmidrol (10 mg/kg); Adelmidrol was administered i.p. when injecting CAR.", "data": [{"smiles": "O=C(Nc1ccccc1)c1cc([N+](=O)[O-])ccc1Cl", "note": "[GW9662, reference compound]", "values": [{"measurement": "effect of pretreatment with PPAR-gamma antagonist on the protective action of Adelmidrol", "value": "antagonized the effect of Adelmidrol thus substantially abolishing the protective action thereof"}]}]}
